# From ChEMBL document CHEMBL1139387, “Fragment-based discovery of the pyrazol-4-yl urea (AT9283), a multitargeted kinase inhibitor with potent aurora kinase activity” (J Med Chem, 2009)
# Tests used:
# Aurora kinase B = Aurora kinase B (Homo sapiens, UniProt Q96GD4); assay: Inhibition of Aurora B
# [1] = target: Cyclin-dependent kinase 1/cyclin B1 (Homo sapiens, UniProt P06493); assay: Inhibition of CDK1/Cyclin B; format: protein-complex assay
# [2] = target: Cyclin-dependent kinase 2 (Homo sapiens, UniProt P24941); assay: Inhibition of CDK2/Cyclin A
# HCT-116 [3] = assay: Cytotoxicity against human HCT116 cells assessed as distinct polyploidy phenotype after 72 hrs; format: functional
# Aurora kinase A = target: T1, Aurora kinase A (Homo sapiens, UniProt O14965)
# T1 sequence (O14965 whole entry): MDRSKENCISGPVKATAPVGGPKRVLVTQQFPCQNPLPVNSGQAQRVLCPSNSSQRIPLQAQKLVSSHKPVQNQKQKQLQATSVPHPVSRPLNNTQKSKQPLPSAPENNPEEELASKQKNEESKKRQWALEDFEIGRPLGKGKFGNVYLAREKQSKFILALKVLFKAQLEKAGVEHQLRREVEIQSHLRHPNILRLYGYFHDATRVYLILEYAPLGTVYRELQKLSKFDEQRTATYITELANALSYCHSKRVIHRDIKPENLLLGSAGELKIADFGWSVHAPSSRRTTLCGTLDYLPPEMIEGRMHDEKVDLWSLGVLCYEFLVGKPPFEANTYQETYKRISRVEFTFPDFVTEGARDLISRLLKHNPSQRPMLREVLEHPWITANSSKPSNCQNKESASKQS
# Mus musculus [4] = assay: Toxicity in BALB/c mouse bearing human HCT116 cells assessed as body weight at 20 mg/kg, ip relative to starting weight; format: organism-based, HCT-116; design: dose 20 mg/kg, route intraperitoneal; details: in vivo
# Mus musculus [5] = assay: Toxicity in BALB/c mouse bearing human HCT116 cells assessed as body weight at 15 mg/kg, ip relative to starting weight; format: organism-based, HCT-116; design: dose 15 mg/kg, route intraperitoneal; details: in vivo
# HCT-116 [6] = assay: Antitumor activity against human HCT116 cells xenografted in BALB/c mouse at 15 mg/kg, ip after 16 days relative to control; format: functional; details: route intraperitoneal
# HCT-116 [7] = assay: Antitumor activity against human HCT116 cells xenografted in BALB/c mouse at 20 mg/kg, ip after 16 days relative to control; format: functional; details: route intraperitoneal
# HCT-116 [8] = assay: Cytotoxicity against human HCT116 cells assessed as number of colonies after 10 to 14 days by colony forming assay; format: functional, cell-based
# [9] = Lipophilicity, log D at pH 7.4; format: physicochemical; details: buffer
# in vitro = details: mouse, plasma
# [10] = target: Cyclin-dependent kinase 1/cyclin B1 (Homo sapiens) (UniProt P06493+P14635); details: 1000 uM
# [11] = target: Vascular endothelial growth factor receptor 3 (Homo sapiens, UniProt P35916); assay: Inhibition of VEGFR3
# Cytochrome P450 2D6 = Cytochrome P450 2D6 (Homo sapiens, UniProt P10635); assay: Inhibition of CYP2D6; format: ADME
# Cytochrome P450 1A2 = target: T2, Cytochrome P450 1A2 (Homo sapiens, UniProt P05177); assay: Inhibition of CYP1A2; format: ADME
# T2 sequence (P05177 whole entry): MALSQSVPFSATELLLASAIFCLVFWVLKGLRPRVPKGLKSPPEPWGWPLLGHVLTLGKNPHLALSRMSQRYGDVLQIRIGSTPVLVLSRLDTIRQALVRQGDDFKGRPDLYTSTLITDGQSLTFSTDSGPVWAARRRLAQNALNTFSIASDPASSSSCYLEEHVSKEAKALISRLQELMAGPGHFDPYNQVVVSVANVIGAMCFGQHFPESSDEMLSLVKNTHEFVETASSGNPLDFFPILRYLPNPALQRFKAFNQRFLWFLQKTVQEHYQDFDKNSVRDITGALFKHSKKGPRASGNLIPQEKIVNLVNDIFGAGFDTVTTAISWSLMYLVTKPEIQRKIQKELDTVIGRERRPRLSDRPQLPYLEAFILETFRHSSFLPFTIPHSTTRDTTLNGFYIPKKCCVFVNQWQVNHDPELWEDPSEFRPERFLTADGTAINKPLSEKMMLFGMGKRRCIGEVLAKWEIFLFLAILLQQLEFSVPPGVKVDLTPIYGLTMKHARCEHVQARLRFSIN
# Cytochrome P450 2C9 = Cytochrome P450 2C9 (Homo sapiens, UniProt P11712); assay: Inhibition of CYP2C9; format: ADME
# Cytochrome P450 2C19 = Cytochrome P450 2C19 (Homo sapiens, UniProt P33261); assay: Inhibition of CYP2C19; format: ADME
# [12] = Solubility at pH 7.0; format: physicochemical; details: buffer
# [13] = Solubility at pH 5.5; format: physicochemical; details: buffer
# [14] = target: Glycogen synthase kinase-3 beta (Homo sapiens, UniProt P49841); assay: Inhibition of GSK3-beta
# [15] = target: T3, Serine/threonine-protein kinase 17A (Homo sapiens, UniProt Q9UEE5); assay: Inhibition of DRAK1
# T3 sequence (Q9UEE5 whole entry): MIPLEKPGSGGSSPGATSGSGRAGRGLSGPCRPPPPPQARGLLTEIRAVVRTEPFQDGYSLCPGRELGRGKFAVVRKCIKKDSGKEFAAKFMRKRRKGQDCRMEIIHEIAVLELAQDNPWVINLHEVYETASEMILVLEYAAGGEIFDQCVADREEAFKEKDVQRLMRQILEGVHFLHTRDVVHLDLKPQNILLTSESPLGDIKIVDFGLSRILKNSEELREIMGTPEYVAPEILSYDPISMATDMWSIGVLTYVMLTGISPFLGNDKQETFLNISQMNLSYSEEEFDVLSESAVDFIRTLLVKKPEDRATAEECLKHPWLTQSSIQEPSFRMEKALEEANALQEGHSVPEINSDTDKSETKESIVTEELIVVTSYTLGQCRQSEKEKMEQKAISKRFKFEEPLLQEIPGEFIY
# [16] = target: Tyrosine-protein kinase Yes (Homo sapiens, UniProt P07947); assay: Inhibition of Yes
# [17] = Clearance in BALB/c mouse bearing human HCT116 cells at 5 mg/kg, iv; format: ADME, organism-based, HCT-116; design: dose 5 mg/kg, route intravenous; details: in vivo, read-out: MLC
# [18] = Volume of distribution at steady state in BALB/c mouse bearing human HCT116 cells at 5 mg/kg, iv; format: ADME, organism-based, HCT-116; design: dose 5 mg/kg, route intravenous; details: in vivo, read-out: Vdss
# [19] = Half life in BALB/c mouse plasma bearing human HCT116 cells at 5 mg/kg, iv; format: ADME, organism-based, HCT-116; design: dose 5 mg/kg, route intravenous
# [20] = Half life in human HCT116 cells xenografted BALB/c mouse tumor at 10 mg/kg, iv; format: ADME, organism-based, HCT-116; design: dose 10 mg/kg, route intravenous
# [21] = Cmax in BALB/c mouse bearing human HCT116 cells at 5 mg/kg, iv; format: ADME, organism-based, HCT-116; design: dose 5 mg/kg, route intravenous; details: in vivo
# [22] = Cmax in BALB/c mouse bearing human HCT116 cells at 10 mg/kg, po; format: ADME, organism-based, HCT-116; design: dose 10 mg/kg, route oral; details: in vivo
# [23] = Cmax in BALB/c mouse bearing human HCT116 cells at 20 mg/kg, ip; format: ADME, organism-based, HCT-116; design: dose 20 mg/kg, route intraperitoneal; details: in vivo
# [24] = AUC (0 to t) in BALB/c mouse bearing human HCT116 cells at 5 mg/kg, iv; format: ADME, organism-based, HCT-116; design: dose 5 mg/kg, route intravenous; details: in vivo
# [25] = AUC (0 to t) in BALB/c mouse bearing human HCT116 cells at 10 mg/kg, po; format: ADME, organism-based, HCT-116; design: dose 10 mg/kg, route oral; details: in vivo
# [26] = AUC (0 to t) in BALB/c mouse bearing human HCT116 cells at 20 mg/kg, ip; format: ADME, organism-based, HCT-116; design: dose 20 mg/kg, route intraperitoneal; details: in vivo
# [27] = Oral bioavailability in BALB/c mouse bearing human HCT116 cells at 10 mg/kg; format: ADME, organism-based, HCT-116; details: in vivo
# [28] = Bioavailability in BALB/c mouse bearing human HCT116 cells at 20 mg/kg, ip; format: ADME, organism-based, HCT-116; details: in vivo
# [29] = Plasma concentration in mouse assessed per kg body weight; format: ADME, organism-based
# [30] = Oral bioavailability in mouse; format: ADME, organism-based; details: in vivo
# Chain of Cyclin-dependent kinase 1/cyclin B1 (P06493 whole entry): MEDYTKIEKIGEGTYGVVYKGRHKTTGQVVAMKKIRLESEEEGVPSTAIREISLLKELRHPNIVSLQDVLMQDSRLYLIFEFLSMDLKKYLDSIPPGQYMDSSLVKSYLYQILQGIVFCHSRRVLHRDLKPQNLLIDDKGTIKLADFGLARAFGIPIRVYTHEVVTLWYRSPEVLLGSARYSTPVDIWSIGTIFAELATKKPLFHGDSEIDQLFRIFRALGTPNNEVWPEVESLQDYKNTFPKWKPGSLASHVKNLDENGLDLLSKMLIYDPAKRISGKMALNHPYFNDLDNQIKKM
# Chain of Cyclin-dependent kinase 1/cyclin B1 (P14635 whole entry, further chain): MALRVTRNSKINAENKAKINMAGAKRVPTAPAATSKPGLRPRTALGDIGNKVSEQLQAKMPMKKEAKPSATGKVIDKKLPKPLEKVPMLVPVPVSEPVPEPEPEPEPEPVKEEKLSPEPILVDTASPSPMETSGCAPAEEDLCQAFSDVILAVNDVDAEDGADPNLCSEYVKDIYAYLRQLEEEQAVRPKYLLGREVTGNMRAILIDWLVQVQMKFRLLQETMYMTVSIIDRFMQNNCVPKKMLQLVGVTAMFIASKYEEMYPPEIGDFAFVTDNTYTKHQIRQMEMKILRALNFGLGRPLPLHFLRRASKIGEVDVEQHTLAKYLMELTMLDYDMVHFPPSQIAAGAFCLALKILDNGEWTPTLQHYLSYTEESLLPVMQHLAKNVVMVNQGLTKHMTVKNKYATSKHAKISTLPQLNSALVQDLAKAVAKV
# Chain of Aurora kinase B (Q96GD4 whole entry): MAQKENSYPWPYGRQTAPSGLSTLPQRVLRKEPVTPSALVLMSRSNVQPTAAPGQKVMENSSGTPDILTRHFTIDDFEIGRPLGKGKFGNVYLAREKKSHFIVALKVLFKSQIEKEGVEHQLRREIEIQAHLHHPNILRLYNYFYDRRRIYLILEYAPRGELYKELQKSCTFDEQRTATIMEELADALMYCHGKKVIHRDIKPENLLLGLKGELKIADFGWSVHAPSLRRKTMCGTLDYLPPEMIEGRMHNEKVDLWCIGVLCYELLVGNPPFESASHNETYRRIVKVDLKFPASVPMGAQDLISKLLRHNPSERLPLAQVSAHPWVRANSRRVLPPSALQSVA
# Chain of Glycogen synthase kinase-3 beta (P49841 whole entry): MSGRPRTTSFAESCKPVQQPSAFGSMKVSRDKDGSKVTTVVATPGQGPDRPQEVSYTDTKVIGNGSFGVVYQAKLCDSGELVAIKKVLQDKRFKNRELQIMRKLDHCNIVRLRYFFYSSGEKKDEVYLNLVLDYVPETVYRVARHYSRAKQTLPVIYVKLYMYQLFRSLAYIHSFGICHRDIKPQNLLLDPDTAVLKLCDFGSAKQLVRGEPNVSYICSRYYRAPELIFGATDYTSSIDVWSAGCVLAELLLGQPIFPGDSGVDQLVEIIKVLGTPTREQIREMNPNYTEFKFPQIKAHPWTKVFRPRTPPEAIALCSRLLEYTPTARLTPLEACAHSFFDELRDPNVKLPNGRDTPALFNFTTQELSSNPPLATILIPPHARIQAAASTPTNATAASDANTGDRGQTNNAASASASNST
# Chain of Cytochrome P450 2C19 (P33261 whole entry): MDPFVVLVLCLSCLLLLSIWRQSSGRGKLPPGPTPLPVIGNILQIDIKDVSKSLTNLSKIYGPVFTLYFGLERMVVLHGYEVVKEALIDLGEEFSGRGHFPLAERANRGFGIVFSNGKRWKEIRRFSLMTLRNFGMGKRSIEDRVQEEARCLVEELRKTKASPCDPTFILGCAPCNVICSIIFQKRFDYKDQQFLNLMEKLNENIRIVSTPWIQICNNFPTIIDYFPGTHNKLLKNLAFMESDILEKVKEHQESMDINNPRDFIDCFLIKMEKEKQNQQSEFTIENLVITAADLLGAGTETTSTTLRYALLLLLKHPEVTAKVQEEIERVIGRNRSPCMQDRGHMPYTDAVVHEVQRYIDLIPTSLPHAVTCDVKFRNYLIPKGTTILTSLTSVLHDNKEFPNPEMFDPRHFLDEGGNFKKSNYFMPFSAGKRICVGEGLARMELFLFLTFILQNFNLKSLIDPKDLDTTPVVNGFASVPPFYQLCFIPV
# Chain of Cytochrome P450 2D6 (P10635 whole entry): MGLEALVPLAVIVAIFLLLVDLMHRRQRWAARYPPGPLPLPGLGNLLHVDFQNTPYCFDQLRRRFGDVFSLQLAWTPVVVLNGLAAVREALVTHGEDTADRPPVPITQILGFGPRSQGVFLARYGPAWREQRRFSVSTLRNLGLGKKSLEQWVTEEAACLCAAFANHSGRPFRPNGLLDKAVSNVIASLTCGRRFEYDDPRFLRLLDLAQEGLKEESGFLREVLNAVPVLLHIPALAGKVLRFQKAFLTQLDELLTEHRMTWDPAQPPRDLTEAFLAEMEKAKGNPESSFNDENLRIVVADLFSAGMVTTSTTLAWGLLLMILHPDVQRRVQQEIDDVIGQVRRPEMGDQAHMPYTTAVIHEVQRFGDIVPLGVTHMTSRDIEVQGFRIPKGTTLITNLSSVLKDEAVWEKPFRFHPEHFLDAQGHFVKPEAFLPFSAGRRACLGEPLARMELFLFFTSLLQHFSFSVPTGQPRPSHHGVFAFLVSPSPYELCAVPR
# Chain of Cytochrome P450 2C9 (P11712 whole entry): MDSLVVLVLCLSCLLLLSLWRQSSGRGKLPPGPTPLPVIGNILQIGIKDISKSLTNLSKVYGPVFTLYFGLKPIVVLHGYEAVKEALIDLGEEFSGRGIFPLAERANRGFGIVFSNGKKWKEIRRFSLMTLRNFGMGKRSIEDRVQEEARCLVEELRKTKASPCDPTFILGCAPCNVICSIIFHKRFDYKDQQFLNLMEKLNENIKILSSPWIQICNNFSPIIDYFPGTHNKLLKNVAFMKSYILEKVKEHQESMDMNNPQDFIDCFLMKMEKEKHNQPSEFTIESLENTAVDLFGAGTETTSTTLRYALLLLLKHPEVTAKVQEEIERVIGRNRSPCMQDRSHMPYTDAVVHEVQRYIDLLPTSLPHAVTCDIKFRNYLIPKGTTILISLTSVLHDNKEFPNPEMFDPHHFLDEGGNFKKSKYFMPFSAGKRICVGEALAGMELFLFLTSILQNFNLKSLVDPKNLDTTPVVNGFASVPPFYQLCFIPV
# Chain of Tyrosine-protein kinase Yes (P07947 whole entry): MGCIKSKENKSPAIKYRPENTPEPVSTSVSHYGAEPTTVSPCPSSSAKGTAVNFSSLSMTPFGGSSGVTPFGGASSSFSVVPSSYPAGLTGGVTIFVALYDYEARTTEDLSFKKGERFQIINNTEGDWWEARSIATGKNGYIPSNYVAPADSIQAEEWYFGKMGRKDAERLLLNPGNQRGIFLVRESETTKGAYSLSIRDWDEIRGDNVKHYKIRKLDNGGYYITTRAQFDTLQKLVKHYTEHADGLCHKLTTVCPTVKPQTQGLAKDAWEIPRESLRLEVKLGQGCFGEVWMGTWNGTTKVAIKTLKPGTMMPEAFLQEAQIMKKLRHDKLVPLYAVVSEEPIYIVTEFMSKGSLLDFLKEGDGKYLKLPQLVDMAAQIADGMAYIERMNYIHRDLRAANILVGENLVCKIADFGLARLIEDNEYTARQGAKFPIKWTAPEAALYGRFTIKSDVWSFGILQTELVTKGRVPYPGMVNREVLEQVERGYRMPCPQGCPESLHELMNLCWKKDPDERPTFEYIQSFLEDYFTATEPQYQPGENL
# Chain of Vascular endothelial growth factor receptor 3 (P35916 whole entry): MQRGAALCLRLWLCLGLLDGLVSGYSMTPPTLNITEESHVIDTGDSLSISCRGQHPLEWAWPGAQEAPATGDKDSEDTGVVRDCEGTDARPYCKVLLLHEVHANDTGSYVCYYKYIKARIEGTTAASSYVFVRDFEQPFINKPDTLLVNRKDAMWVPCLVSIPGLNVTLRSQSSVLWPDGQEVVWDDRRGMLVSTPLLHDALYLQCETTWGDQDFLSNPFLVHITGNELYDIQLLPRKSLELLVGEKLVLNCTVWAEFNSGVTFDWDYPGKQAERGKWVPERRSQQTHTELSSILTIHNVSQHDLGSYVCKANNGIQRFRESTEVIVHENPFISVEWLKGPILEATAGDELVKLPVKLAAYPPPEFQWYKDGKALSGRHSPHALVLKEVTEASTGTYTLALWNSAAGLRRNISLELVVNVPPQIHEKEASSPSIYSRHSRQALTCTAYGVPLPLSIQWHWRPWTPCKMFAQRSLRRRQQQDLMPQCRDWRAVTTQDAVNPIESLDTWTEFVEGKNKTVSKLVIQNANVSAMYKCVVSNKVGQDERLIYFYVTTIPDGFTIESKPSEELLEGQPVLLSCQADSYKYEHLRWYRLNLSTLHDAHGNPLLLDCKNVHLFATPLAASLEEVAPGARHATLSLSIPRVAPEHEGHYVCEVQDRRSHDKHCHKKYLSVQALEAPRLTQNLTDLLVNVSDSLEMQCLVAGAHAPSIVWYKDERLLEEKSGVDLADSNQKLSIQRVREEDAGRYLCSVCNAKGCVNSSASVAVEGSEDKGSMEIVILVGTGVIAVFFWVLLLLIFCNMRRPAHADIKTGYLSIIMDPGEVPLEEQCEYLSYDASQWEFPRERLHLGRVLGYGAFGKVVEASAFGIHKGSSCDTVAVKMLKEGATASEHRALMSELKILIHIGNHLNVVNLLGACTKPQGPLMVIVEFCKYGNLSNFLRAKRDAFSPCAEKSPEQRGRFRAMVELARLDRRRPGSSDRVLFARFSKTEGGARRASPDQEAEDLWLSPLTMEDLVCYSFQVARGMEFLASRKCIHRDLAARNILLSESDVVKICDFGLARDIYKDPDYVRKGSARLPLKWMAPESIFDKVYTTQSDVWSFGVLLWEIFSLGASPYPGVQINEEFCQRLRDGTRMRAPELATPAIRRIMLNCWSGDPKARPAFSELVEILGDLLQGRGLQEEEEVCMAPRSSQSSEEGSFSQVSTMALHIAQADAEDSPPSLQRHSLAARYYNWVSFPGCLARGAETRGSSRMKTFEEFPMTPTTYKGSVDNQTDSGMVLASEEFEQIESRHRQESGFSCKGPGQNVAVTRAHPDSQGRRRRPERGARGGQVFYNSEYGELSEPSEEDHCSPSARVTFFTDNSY
smiles,measurement,setting,value
O=C(Nc1c[nH]nc1-c1nc2cc(CN3CCOCC3)ccc2[nH]1)c1ccccc1,IC50,Aurora kinase B,15 nM
same,IC50,[1],340 nM
same,IC50,[2],140 nM
same,Activity,HCT-116 [3],0.1 µM
same,IC50,Aurora kinase A,3.5 nM
Cl.O=C(Nc1c[nH]nc1-c1nc2cc(CN3CCOCC3)ccc2[nH]1)NC1CC1,Activity,Mus musculus [4],Non-toxic
same,Activity,Mus musculus [5],Non-toxic
same,T/C,HCT-116 [6],33%
same,T/C,HCT-116 [7],24%
Cc1cc(Nc2cc(N3CCN(C)CC3)nc(Sc3ccc(NC(=O)C4CC4)cc3)n2)n[nH]1 [TOZASERTIB],Activity,HCT-116 [3],0.03 µM
same,IC50,HCT-116 [8],24 nM
O=C(Nc1cccnc1)Nc1c[nH]nc1-c1nc2cc(CN3CCOCC3)ccc2[nH]1,IC50,Aurora kinase B,24 nM
same,IC50,[1],290 nM
same,IC50,[2],160 nM
same,Activity,HCT-116 [3],1 µM
same,IC50,Aurora kinase A,13 nM
CC(=O)Nc1c[nH]nc1-c1nc2ccccc2[nH]1,IC50,Aurora kinase B,510 nM
same,IC50,[1],3200 nM
same,IC50,[2],990 nM
same,IC50,Aurora kinase A,70 nM
O=C(Nc1c[nH]nc1-c1nc2ccccc2[nH]1)c1ccccc1,IC50,Aurora kinase B,180 nM
same,IC50,[1],230 nM
same,Activity,HCT-116 [3],3 µM
O=C(Nc1c[nH]nc1-c1nc2cc(CN3CCOCC3)ccc2[nH]1)Nc1c(F)cccc1F,IC50,Aurora kinase B,2.6 nM
same,IC50,[1],290 nM
same,IC50,[2],160 nM
same,Activity,HCT-116 [3],0.03 µM
same,IC50,HCT-116 [8],17 nM
same,logD,[9],3.1
same,IC50,Aurora kinase A,1.5 nM
same,fraction unbound,in vitro,0.169
c1ccc2[nH]c(-c3cc[nH]n3)nc2c1,IC50,Aurora kinase B,6500 nM
same,IC50,[2],28000 nM
same,inhibition,[10],49%
O=C(Nc1c[nH]nc1-c1nc2ccc(CN3CCOCC3)cc2[nH]1)NC1CC1 [AT-9283],IC50,[11],1 nM
same,IC50,HCT-116 [8],12 nM
same,IC50,Cytochrome P450 2D6,> 10 µM
same,IC50,Cytochrome P450 1A2,> 10 µM
same,IC50,Cytochrome P450 2C9,> 10 µM
same,IC50,Cytochrome P450 2C19,> 10 µM
same,solubility,[12],2000 µg/mL
same,solubility,[13],13 mg/mL
same,IC50,[14],1 nM
same,IC50,[15],10 nM
same,logD,[9],2.1
same,IC50,[16],1 nM
same,clearance,[17],114 mL/min/kg
same,Vd,[18],3.9 L/kg
same,half-life,[19],30 min
same,half-life,[20],150 min
same,Cmax,[21],4.9 µM
same,Cmax,[22],450 nM
same,Cmax,[23],8.4 µM
same,AUC(0-t),[24],1.9 µM·h
same,AUC(0-t),[25],0.91 µM·h
same,AUC(0-t),[26],7.7 µM·h
same,bioavailability,[27],24%
same,bioavailability,[28],100%
O=C(Nc1c[nH]nc1-c1nc2cc(CN3CCOCC3)ccc2[nH]1)NC1CCOCC1,IC50,Aurora kinase B,10 nM
same,IC50,[1],17000 nM
same,Activity,HCT-116 [3],1 µM
same,IC50,Aurora kinase A,26 nM
O=C(Nc1c[nH]nc1-c1nc2ccc(CN3CCOCC3)cc2[nH]1)c1ccc(F)cc1,IC50,Aurora kinase B,75 nM
same,IC50,[1],1500 nM
same,IC50,[2],530 nM
same,Activity,HCT-116 [3],0.3 µM
same,clearance,[29],43 mL/min/kg
same,bioavailability,[30],26%
same,fraction unbound,in vitro,0.005
O=C(Nc1ccccc1F)Nc1c[nH]nc1-c1nc2cc(CN3CCOCC3)ccc2[nH]1,IC50,Aurora kinase B,10 nM
same,IC50,[1],1100 nM
same,IC50,[2],230 nM
same,Activity,HCT-116 [3],0.1 µM
same,IC50,Aurora kinase A,2.8 nM
O=C(Nc1c[nH]nc1-c1nc2cc(CN3CCOCC3)ccc2[nH]1)NC1CCCCC1,IC50,Aurora kinase B,5.2 nM
same,IC50,[1],2900 nM
same,IC50,[2],1200 nM
same,Activity,HCT-116 [3],0.1 µM
same,IC50,Aurora kinase A,5.7 nM
O=C(Nc1ccccc1)Nc1c[nH]nc1-c1nc2cc(CN3CCOCC3)ccc2[nH]1,IC50,Aurora kinase B,54 nM
same,IC50,[1],5500 nM
same,IC50,[2],1800 nM
same,Activity,HCT-116 [3],0.3 µM
same,fraction unbound,in vitro,0.047
